# Data from US11180486B2, “Indolylkojyl methane analogues, process of preparation thereof and use as inhibitor of cancer cells invasion and metastasis” (Council of Scientific & Industrial Research, priority 2017, dated 2021).
# How the values were obtained:
# MCF7 cells [1] = assay: Migration (wound closure) assay; type: cell-based, human; conditions: after 48 h of incubation
# Method: (§1) Migration Assay. The experiment was performed according to the pre-standardized procedure (Rah et al., 2012, PloS one, 7(9). p.e44039). MDA-MB-231 and MCF7 cells were plated in 6-well plates at a concentration of (1×10^6 cells/well) and allowed to form a confluent monolayer for 24 h. On the next day, the monolayer was scratched with a sterile pipette tip (20-200 μl) and washed with serum free medium to remove the detached cells. […] Wounded areas were progressively photographed under an inverted microscope with Nikon D3100 camera at 20× magnification. […]
# MDA-MB-231 cells [2] = assay: Migration (wound closure) assay; type: cell-based, human; conditions: after 48 h of incubation
# Method: as §1
# MCF7 cells [3] = assay: Matrigel invasion assay; type: cell-based; conditions: Homo sapiens, 200 nM, 24 h, vs vehicle
# Method: (§2) Matrigel Invasion Assay. The effect of compound 5 on invasion capability of breast cancer cells was evaluated using BD Biocoat Tumor Invasion Assay System (BD Bioscience, Bedford, Mass.) according to the manufacturer's instruction. Briefly, MDA-MB-231 and MCF7 cells (1×10^6) cells were cultured in the presence of 200 nM of compound 5, along with doxorubicin and vehicle for 24 h in serum free media in the upper chambers/inserts, and the bottom wells were filled with chemo-attractant (complete media with 10% FBS). Cells were allowed to migrate at 37° C. and 5% CO2. After 24 h, the matrigel-coated polycarbonate filters were removed, the non-migrating cells were separated from the upper chamber with a cotton swab and the inserts were fixed with methanol and stained with 0.25% crystal violet solution. For each replicate (n=3), migration of the cells was quantified by counting the stained cells (cells per five random fields) under an inverted microscope (Amin et al., 2015, Mol. Carcinog).
# MDA-MB-231 cells [4] = assay: Matrigel invasion assay; type: cell-based; conditions: Homo sapiens, 200 nM, 24 h, vs vehicle
# Method: as §2
# MMP-2 = assay: Immunoblotting, expression of MMP-2; type: cell-based, human; conditions: MDA-MB-231 cells; dose dependent
# Method: (§3) Immunoblotting. MDA-MB-231 and MCF7 cells (0.5×10^6) were plated in six well plates for overnight in a humidified CO2 incubator and then exposed to varying concentrations of 5 (50, 100 and 200 nM) for 24 h along with vehicle (dose dependent study) and 200 nM of 5 for various time points like; 0, 6, 12, 24 and 48 h (time dependent study). Cells were then harvested, washed with chilled PBS and lysed with lysis buffer (HEPES 1 mM, KCl 60 mM, NP-40 0.3%, EDTA 1 mM, DTT 1 mM, sodium orthovanadate 1 mM, PMSF 0.1 mM and cocktail protease inhibitor). The cell extractions were centrifuged at 12,000 rpm for 10 min at 4° C. Protein concentration was measured by the standard Bradford method. An equal amount (20 μg) of protein from each sample was subjected to SDS-PAGE, and proteins were transferred to PVDF membranes (PALL), blocked with 5% (w/v) non-fat milk in PBS containing 0.1% Tween-20, probed with relevant antibodies (1:1000 dilution) for 3 h at room temperature or overnight at 4° C., and subsequently washed and probed with species-specific secondary antibodies coupled to horseradish peroxidase. Immunoreactive proteins were detected by Enhanced Chemiluminescence Plus (Thermo) (Rah et al., 2012, PloS one, 7(9), p.e44039.).
# TIMP-1 = assay: Immunoblotting, expression of TIMP-1; type: cell-based, human; conditions: MDA-MB-231 cells; dose dependent
# Method: as §3
# [5] = Pharmacokinetic study, intravenous; type: in vivo; conditions: mouse, plasma, male Balb/c mice, i.v. 2.5 mg/kg b.w. single dose
# Method: Pharmacokinetic (PK) Study. Healthy male Balb/c mice (25-30 grams each) were taken to access the PK profile of 5. There were 11 time points for blood collection and 6 animals were there in each sampling time point for maintaining accuracy of the experiment. Animals were administered with 5, intravenously (2.5 mg/kg, b.w.) and control mice were administered with normal saline. A minimum of 100 μL of plasma was collected from each animal at different time points, viz: (0.083, 0.25, 0.5, 1, 2, 4, 6, 8, 12, 16 and 24 h) after dosing with 5 and then acetonitrile (ACN) 400 μL was added to it to precipitate the plasma proteins. The compound was extracted into the solvent, filtered and analyzed by a 6410B Triple quadrupole LC-MS/MS system (Agilent Technologies, USA). Quantification was performed through multiple reaction monitoring (MRM) separately for all the six samples collected individually at each time point by comparing with the standard calibration curve prepared using Agilent Mass Hunter software (version B.04.00). Various PK parameters like; half life (t1/2) (h), C initial C0 (ng/ml), area under the curve AUC(0-∞) (ng*h/ml), Vd (L/kg), Cl (L/h/kg) and Mean Residence Time (h) were calculated using non-compartmental pharmacokinetic data analysis. […] The pharmacokinetic parameters of compound 5 further provide evidence that the molecule has its very good absorption and biodistribution capability through i.v. route of administration.
smiles,measurement,setting,value
"CCCCCCCC(c1oc(CO)cc(=O)c1O)c1c[nH]c2ccccc12 (stereo not shown) [Compound 5, 2-{1-(1H-indol-3-yl)octyl}-3-hydroxy-6-(hydroxymethyl)-4H-pyran-4-one]",suppressed migration,MCF7 cells [1],55.4%
same,suppressed migration,MDA-MB-231 cells [2],57.3%
same,inhibition at 0.2 µM,MCF7 cells [3],79%
same,inhibition at 0.2 µM,MDA-MB-231 cells [4],67%
same,expression of MMP-2,MMP-2,downregulated
same,expression of TIMP-1,TIMP-1,induced significantly
same,AUC(0-t),[5]; read-out: Area under curve (AUC0-t),0.395 µg·h/mL
same,AUC(0-inf),[5]; read-out: Area under curve (AUC0-∞),0.406 µg·h/mL
same,C0,[5]; read-out: C initial (C0),1.22 µg/mL
same,clearance,[5]; read-out: Clearance (Cl) (converted),12.3 L/h/kg
same,half-life,[5]; read-out: Half life (t1/2) (converted),25.8 min
same,MRT,[5]; read-out: Mean residence time (MRT),27 min
same,Vd,[5]; read-out: Volume of distribution (Vd),7.61 L/kg
